Measured values from publication PMC10305119, “Analogs of 6-Bromohypaphorine with Increased Agonist Potency for α7 Nicotinic Receptor as Anti-Inflammatory Analgesic Agents” (Marine Drugs, 2023).
Read-outs that look alike come from different tables or passages of the source.

Legend:
[1] = system: α7 nAChR; design: method as in PMID 25775422; details: cited from earlier work; for EC50: read-out: EC50 / potency for α7 nAChR
[2] = target: T1, human α7 nAChR (Homo sapiens, UniProt P36544); experiment: Calcium fluorescence assay on α7 nAChR expressed in Neuro2a cells, in the presence of PNU120596; assay type: cell-based; details: for EC50: human α7 nAChR in Neuro2a cells, PNU120596 10 μM present
T1 construct: expressed in transfected cells; host or cells: mouse neuroblastoma Neuro2a, transient co-transfection with Ric-3 (Ric3-pCMV6-XL5, OriGene) and the calcium sensor Case12
T1 sequence (P36544 23-502): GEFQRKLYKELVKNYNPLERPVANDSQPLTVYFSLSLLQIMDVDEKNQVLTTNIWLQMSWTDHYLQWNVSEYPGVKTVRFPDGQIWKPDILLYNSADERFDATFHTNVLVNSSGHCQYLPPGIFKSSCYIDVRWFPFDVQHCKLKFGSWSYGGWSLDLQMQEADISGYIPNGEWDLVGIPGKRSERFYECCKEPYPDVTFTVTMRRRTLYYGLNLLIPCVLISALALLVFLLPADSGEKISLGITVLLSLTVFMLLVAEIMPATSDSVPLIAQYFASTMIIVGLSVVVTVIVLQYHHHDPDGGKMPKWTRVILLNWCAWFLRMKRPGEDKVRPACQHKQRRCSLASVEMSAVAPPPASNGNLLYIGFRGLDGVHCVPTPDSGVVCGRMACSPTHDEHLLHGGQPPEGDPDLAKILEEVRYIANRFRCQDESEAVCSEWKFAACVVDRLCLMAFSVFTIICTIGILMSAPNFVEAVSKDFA
Experimental: A panel of the synthesized compounds was tested to determine their activity on α7 nAChR by fluorescence detection of cytoplasmic calcium rise (Figure 2a).
Mouse neuroblastoma Neuro2a cells were purchased from the Russian collection of cell cultures (Institute of Cytology, Russian Academy of Sciences, Saint Petersburg, Russia). Cells were cultured in Dulbecco’s modified Eagle’s essential medium (Paneco, Moscow, Russia) supplemented with 10% fetal bovine serum (Sigma, St. Louis, MO, USA). The cells one day before transfection were subcultured and plated at a density of 10,000 cells per well on a 96-well plate. The next day, Neuro2a cells were transiently transfected with plasmids coding α7 nAChR (human α7 nAChR-pCEP4) or its mutants, the chaperone Ric-3 (Ric3-pCMV6-XL5, OriGene, USA) and a fluorescent calcium sensor Case12 (pCase12-cyto vector, Evrogen, Russia) in molar ratio 4:1:1. Lipofectamine transfection protocol (Invitrogen, Waltham, MA, USA) was performed as recommended by the manufacturer. Transfected cells were grown at 37 °C in a CO2 incubator for 48 h.
Calcium […] assay was performed as described previously. Briefly, Transfected Neuro2a cells were grown on black 96-well plates (Corning, Somerville, MA, USA) at 37 °C in a CO2 incubator for 72 h, then growth medium was substituted with buffer containing 140 mM NaCl, 2 mM CaCl2, 2.8 mM KCl, 4 mM MgCl2, 20 mM HEPES, 10 mM glucose; pH 7.4.
Cells were incubated with the α7 nAChR positive allosteric modulator PNU120596 (10 μM, Tocris, Bristol, UK) for 20 min at room temperature before the addition of tested compounds. Plates were measured in microplate reader Hidex Sence (Hidex, Turku, Finland) using excitation at 485 nm and emission at 535 ± 10 nm. Fluorescence peak intensity in each well was expressed as a percentage of the maximal obtained response. Data files were analysed using Hidex Sence software (Hidex, Turku, Finland). Controls were run in the presence of 4 μM α-cobratoxin.
The R statistical programming environment “https://www.r-project.org/” (accessed on 16 June 2023) was used to analyze the results. Base R graphics and ggplot2 [54] graphical library were used for the data visualisation. Dose-response curves were fitted using “nlm” function and the following equation: response ~ (100/1 + (EC50/x)^n), where x denotes base 10 logarithm of ligand concentration in moles per liter (normalized to 1M) and n is the Hill coefficient. Libraries “rgl” “https://CRAN.R-project.org/package=rgl” (accessed on 16 May 2023) and “barplot3d” “https://cran.r-project.org/src/contrib/Archive/barplot3d/” (accessed on 16 May 2023) were used to generate the 3D bar chart shown on Figure 2b.
Figure 2 In vitro activity determination of the synthesized compounds. […] The receptor activation was detected as an increase in fluorescent signal in cell cytoplasm by fluorescence microscopy or as total fluorescence of the well in 96-well plate reader setup. Normalized fluorescence amplitude was plotted against base 10 logarithm of mole per liter concentration of the tested agonist and EC50 values were than calculated using dose-response equation. […] Substitutions in the 6th position of the indole ring (designated as X) were halogens (green shadow), hydrogen bond acceptors (yellow shadow) or hydrogen bond donors (blue shadow). Carboxy group modifications were comprised by free acid (Q = OH), ethers (Q = OCH3, OC2H5), and amides (Q = NH2, NHCH3).

[3] = system: CD86 expression on macrophages; experiment: Flow cytometry of CD86 protein on macrophages; assay type: cell-based, human; details: 48 h incubation
Experimental: (§1) The effect of the above-listed compounds on the expression of the TLR4 receptor and the CD86 protein was studied by flow cytometry after 48 h incubation with macrophages. The interaction of bacterial endotoxins with the TLR4 receptor is known to activate the expression of several pro-inflammatory cytokine genes, while the co-stimulatory molecule CD86 plays an important role in […] inflammatory responses. A decrease in the expression of the TLR4 receptor was observed under the action of all tested compounds (Figure 4c,e), the rank order of these TLR4-suppressing effects was as follows: hypaphorine (14%) < PNU 282,987 (21%) < 6ID (31%).
(§2) Peripheral blood mononuclear cells (PBMCs) were separated by Ficoll-Paque PLUS density gradient centrifugation. PBMCs were placed in a sterile Petri dish and incubated at 37 °C for 2 h. Unattached cells were then removed by washing with PBS and substituted with fresh complete RPMI 1640 medium. To generate monocyte-derived macrophages (MDMs), 50 ng/mL GM-CSF was added to the isolated monocytes and cultured for 6 days to differentiate them into non-polarized MDMs.
(§3) Figure 4 The effects of PNU 282987, hypaphorine, and D-6-iodohypaphorine methyl ester (6ID) on macrophage membrane proteins expression. Cells were treated with these compounds for 48 h and then analyzed by flow cytometry. PNU 282,987 led to an increase in the (a) CD11b and (b) CD11c expression. (c): All tested compounds led to a decrease in TLR4 expression. (d): Macrophages stimulation with hypaphorine and 6ID promoted an increase in CD86 expression. Results obtained in three independent experiments on macrophages from different donors and presented as mean ± SD. One-way ANOVA tests with Tukey post hoc test: * p ˂0.05, ** p ˂ 0.01, **** p < 0.0001 in comparison with untreated cells.

[4] = target: T2, human α3-containing nAChRs (Homo sapiens, UniProt P32297); experiment: Calcium imaging of α3-containing nAChRs in SH-SY5Y cells (nicotine-induced calcium rise); assay type: cell-based; details: for agonism on α3* nAChR (calcium response): compound alone
T2 construct: endogenous in cells; host or cells: human neuroblastoma SH-SY5Y
T2 sequence (P32297 32-505): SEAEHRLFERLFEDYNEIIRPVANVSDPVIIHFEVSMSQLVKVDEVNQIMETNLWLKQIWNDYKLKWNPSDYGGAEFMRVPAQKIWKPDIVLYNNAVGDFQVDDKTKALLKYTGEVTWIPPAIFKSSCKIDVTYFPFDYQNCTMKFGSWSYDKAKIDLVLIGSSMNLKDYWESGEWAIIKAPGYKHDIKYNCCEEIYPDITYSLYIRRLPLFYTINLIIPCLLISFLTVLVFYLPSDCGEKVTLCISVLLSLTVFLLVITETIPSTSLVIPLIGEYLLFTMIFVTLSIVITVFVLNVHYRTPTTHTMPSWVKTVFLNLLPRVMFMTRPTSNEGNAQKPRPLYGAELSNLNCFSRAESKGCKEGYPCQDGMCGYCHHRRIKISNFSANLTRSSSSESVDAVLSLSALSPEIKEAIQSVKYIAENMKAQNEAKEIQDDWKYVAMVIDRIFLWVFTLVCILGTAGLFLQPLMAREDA
Experimental: Two of the studied compounds with high and medium agonist potency for α7 nAChR (6CF and 6ID, Table 1) were tested for activity toward α3* nAChR by calcium imaging.
Normalized data are presented as mean ± standard error. n = 6–7.

[5] = system: CD11c expression on macrophages; experiment: Flow cytometry of macrophage membrane protein CD11c; assay type: cell-based, human; details: 48 h
Experimental: (§4) The selective agonist PNU 282,987 increased CD11b and CD11c protein expression by an average of 10% and 26%, respectively (Figure 4a,b).
as §2, §3

[6] = system: TLR4 expression on macrophages; experiment: Flow cytometry of TLR4 receptor on macrophages; assay type: cell-based, human; details: 48 h incubation
Experimental: as §1, §2, §3

[7] = system: CD11b expression on macrophages; experiment: Flow cytometry of macrophage membrane protein CD11b; assay type: cell-based, human; details: 48 h
Experimental: as §4, §2, §3

[8] = system: STAT3 phosphorylation; experiment: STAT3 phosphorylation in LPS-stimulated macrophages (flow cytometry); assay type: cell-based, human; details: compound 1 h, then LPS 3 h; control MFI 49
Experimental: To gain an insight into the signaling induced by the tested compounds, ERK1/2 and STAT3 phosphorylation was checked. Macrophages were treated with tested compounds for 1 h, after which they were stimulated with LPS for 3 h.
as §2
Figure 5 Effects of the analyzed compounds on signaling pathways in LPS-stimulated macrophages. Cells were treated with PNU 282987, hypaphorine, or 6-iodohypaphorine methyl ester (6ID) for 1 h and then stimulated with LPS for 3 h. Phosphorylated ERK1/2 and STAT3 were quantified by flow cytometry with specific antibodies. […] (c): Representative histogram showing the increase in ERK 1/2 phosphorylation in comparison to control. The numbers in the histograms show the MFI ± SD (n = 3). MFI—geometrical mean fluorescence intensity. One-way ANOVA tests with Tukey post hoc test: * p ˂ 0.05, ** p ˂ 0.01, *** p < 0.001 in comparison with untreated cells. TEXT PRINTED IN THE PICTURE: (c) Control: PE-ERK 1/2 Phospho: 193.7±1.5 | (c) PNU 282987: PE-ERK 1/2 Phospho: 251.3±13.7 | (c) Hy: PE-ERK 1/2 Phospho: 246.0±15.7 | (c) 6ID: PE-ERK 1/2 Phospho: 273.7±8.1 DOUBTS OF THE COPYIST ABOUT THIS PICTURE: Panel c: no measure or unit is printed beside the numbers; the x-axis label "PE-ERK 1/2 Phospho" is used as the measure / "Control" is the untreated reference rather than a substance; it is included because a value is printed with it

C[N+](C)(C)[C@@H](Cc1c[nH]c2cc(Br)ccc12)C(=O)[O-] [6-bromohypaphorine]
α7 nAChR agonistic activity ([1]; as previously reported): agonistic activity in high micromolar concentrations

COC(=O)[C@H](Cc1c[nH]c2ccccc12)[N+](C)(C)C [Compound 4, methyl ester of L-hypaphorine]
EC50 ([2]; read-out: EC50): 27 µM | increase in the expression of CD86 [3]: 26%

C[N+](C)(C)C(Cc1c[nH]c2cc([N+](=O)[O-])ccc12)C(=O)[O-] (stereo not shown) [Compound 14, 6-nitrohypaphorine]
α7 nAChR agonistic activity ([2]; at concentrations up to 1 mM, PNU 120,596 present): does not show any agonistic activity | EC50 [2]: no agonistic activity

COC(=O)[C@@H](Cc1c[nH]c2cc(C(F)(F)F)ccc12)[N+](C)(C)C [Compound 15, (D)-6-trifluoromethylhypaphorine methyl ester]
EC50 ([2]; read-out: EC50): 5.14 µM | agonism on α3* nAChR (calcium response) ([4]; listed as 6CF): Neither 6ID, which was most active agonist of α7 nAChR, nor 6CF showed detectable agonism on α3* nAChR at concentrations up to 30 µM | agonism on α3* nAChR (calcium response) ([4]; listed as 6CF3): does not evoke noticeable calcium response in concentrations 10, 1, and 0.1 μM | IC50 ([4]; inhibition of nicotine (100 μM)-induced calcium rise): 2.4 ± 1.2 µM

O=C(N[C@H]1CN2CCC1CC2)c1ccc(Cl)cc1 [PNU 282,987]
increase in the expression of CD86 [3]: no effect | increase in CD11c protein expression [5]: 26% | decrease in the expression of the TLR4 receptor [6]: 21% | increase in CD11b protein expression [7]: 10% | STAT3 phosphorylation, MFI [8]: increase in the phosphorylation

Clc1ccc(C2CC3CCC2N3)cn1 (stereo not shown) [epibatidine]
EC50 [1]: […]
